For data set [1] the following is noted: human, serum.
The conditions of data set [2]: human.
The conditions of data set [3]: human. This is another data set of the same source.
The nature of data set [4]: Presence of at least one case with successful reintroduction. [column 'REINT' in source]. The conditions noted are these: human.
For data set [5] the following is noted: human. The source holds these as a separate data set.
The conditions of data set [6]: human. This is another data set of the same source.
The nature of data set [7]: Proposed mechanism(s) of liver damage. [column 'MEC' in source]. The conditions noted are these: human.
The conditions of data set [8]: human. This is another data set of the same source.
Data set [9] can be described thus: Times to onset, minimal and maximal, observed in the indexed observations. [column 'DELAI' in source]. The conditions noted are these: human.
For data set [10] the following is noted: human, serum. This is another data set of the same source.
The conditions of data set [11]: human, serum, 4383 h.
The conditions of data set [12]: human. The source holds these as a separate data set.
The conditions of data set [13]: human. This is another data set of the same source.
Data set [14] is described as follows: Highest frequency of moderate liver toxicity observed during clinical trials, expressed as a percentage. [column '% BIOL' in source]. As to conditions: human.
The conditions of data set [15]: human. This is another data set of the same source.
Data set [16] in a line: Highest frequency of acute liver toxicity observed during clinical trials, expressed as a percentage. [column '% AIGUE' in source]. The conditions noted are these: human.
The conditions of data set [17]: human. This is another data set of the same source.

The structures appear in SMILES notation.
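Throughout, for Hepatotoxicity (association with vascular disease): count of indexed literature references reporting vascular liver injury in humans, e.g. peliosis hepatitis, hepatic veno-occlusive disease or Budd-Chiari syndrome.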
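Throughout, for Hepatotoxicity (benign tumour): value is a count of indexed literature references citing a benign tumour confirmed by histopathology.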
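Throughout, for Hepatotoxicity (choleostasis): human cholestatic liver injury, shown by histopathology or by peak ALT or AST elevation over alkaline phosphatase ratio below 2, value counts indexed literature reports.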
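Throughout, for Hepatotoxicity (chronic liver disease): chronic liver injury confirmed by histopathology or persistently raised serum aminotransferase activity beyond 6 months, value given as the count of indexed literature references.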
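Throughout, for Hepatotoxicity (cirrhosis): value is a count of indexed literature references reporting cirrhosis confirmed by histopathology.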
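Throughout, for Hepatotoxicity (cytolytic): human cytolytic liver injury, shown by histopathology or by a ratio above 5 of peak ALT or AST elevation to alkaline phosphatase elevation, value counts indexed references.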
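Throughout, for Hepatotoxicity (granulomatous hepatitis): value is a count of indexed literature references reporting granulomatous liver disease confirmed by histopathology.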
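Throughout, for Hepatotoxicity (malignant tumour): malignant tumour confirmed by histopathology, value gives the count of indexed literature references reporting it.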
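Throughout, for Hepatotoxicity (severe hepatitis): human clinical data: severe hepatitis, meaning potentially life-threatening liver failure or clinically observed cases, the value counts how many indexed literature references report it.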
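Throughout, for Hepatotoxicity (steatosis): steatosis confirmed by histopathology, value is the count of indexed references.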

For the molecule `CCc1nc(N)nc(N)c1-c1ccc(Cl)cc1.COc1ncnc(NS(=O)(=O)c2ccc(N)cc2)c1OC`, the “Hepatotoxicity (moderate)” value in data set [1] is recorded as 11; in [14], 22.5%. Besides, the “Hepatotoxicity (cirrhosis)” value in data set [2] amounted to 0. Besides, the “Hepatotoxicity (steatosis)” value in data set [3] was 0. Besides, in data set [4], the “Hepatotoxicity (successful reintroduction)” value is reported as “yes”. The “Hepatotoxicity (choleostasis)” value in data set [5] is recorded as 4. The “Hepatotoxicity (malignant tumour)” value in data set [6] worked out at 0. In data set [7], the “Hepatotoxicity (mechanism)” value was “Allergic”. The “Hepatotoxicity (severe hepatitis)” value in data set [8] is given as 3. The “Hepatotoxicity (time to onset)” value in data set [9] stood at 1 day - 3 months. Besides, the “Hepatotoxicity (acute)” value in [10] is recorded as 14; in data set [16], 23.5%. The “Hepatotoxicity (chronic liver disease)” value in [11] was 0. Moreover, the “Hepatotoxicity (benign tumour)” value in data set [12] amounted to 0. The “Hepatotoxicity (cytolytic)” value in data set [13] was found to be 5. Besides, the “Hepatotoxicity (association with vascular disease)” value in data set [15] was determined as 0. For the same molecule, in data set [17], the “Hepatotoxicity (granulomatous hepatitis)” value stood at 2.
As for `CCCC(C)C1(CC)C(=O)NC(=S)NC1=O` (centres undefined) [THIOPENTAL], the “Hepatotoxicity (moderate)” value in data set [1] was determined as 4; in data set [14], 87%. For the same molecule, in data set [2], the “Hepatotoxicity (cirrhosis)” value is on record as 0. In addition, in data set [3], the “Hepatotoxicity (steatosis)” value is 1. The “Hepatotoxicity (successful reintroduction)” value in [4] is given as “yes”. For the same molecule, the “Hepatotoxicity (choleostasis)” value in [5] is 0. For the same molecule, the “Hepatotoxicity (malignant tumour)” value in [6] is on record as 0. Besides, the “Hepatotoxicity (mechanism)” value in data set [7] is recorded as “Dose-dependant”. Besides, the “Hepatotoxicity (severe hepatitis)” value in [8] came out at 0. The “Hepatotoxicity (time to onset)” value in data set [9] is reported as 1 day - 5 days. Further, the results for the “Hepatotoxicity (acute)” value in data set [10] and in data set [16] were 2 and 0%, respectively. In addition, in data set [11], the “Hepatotoxicity (chronic liver disease)” value is 0. For the same molecule, in data set [12], the “Hepatotoxicity (benign tumour)” value is 0. Moreover, the “Hepatotoxicity (cytolytic)” value in data set [13] worked out at 1. In data set [15], the “Hepatotoxicity (association with vascular disease)” value amounted to 0. For the same molecule, the “Hepatotoxicity (granulomatous hepatitis)” value in data set [17] came to 0.
Regarding `Cc1nc2ccc(CN(C)c3ccc(C(=O)N[C@@H](CCC(=O)O)C(=O)O)s3)cc2c(=O)[nH]1` [RALTITREXED], the “Hepatotoxicity (moderate)” value in data set [1] is given as 20; in data set [14] it was 100%. The “Hepatotoxicity (cirrhosis)” value in [2] was 1. Besides, in [3], the “Hepatotoxicity (steatosis)” value was found to be 1. For the same molecule, the “Hepatotoxicity (successful reintroduction)” value in data set [4] is “yes”. Moreover, in data set [5], the “Hepatotoxicity (choleostasis)” value amounted to 1. In data set [6], the “Hepatotoxicity (malignant tumour)” value amounted to 0. Further, the “Hepatotoxicity (mechanism)” value in data set [7] is given as “Dose-dependant”. Besides, in [8], the “Hepatotoxicity (severe hepatitis)” value is 3. Moreover, in [9], the “Hepatotoxicity (time to onset)” value is listed as 2 weeks - 17 weeks. Further, the entries for the “Hepatotoxicity (acute)” value in data set [10] and in [16] were 8 and 21.9%, respectively. For the same molecule, the “Hepatotoxicity (chronic liver disease)” value in [11] is recorded as 0. Also, in data set [12], the “Hepatotoxicity (benign tumour)” value stood at 0. Moreover, the “Hepatotoxicity (cytolytic)” value in data set [13] is 7. Moreover, the “Hepatotoxicity (association with vascular disease)” value in [15] amounted to 0. Besides, the “Hepatotoxicity (granulomatous hepatitis)” value in data set [17] came to 0.
`CC(C(=O)O)c1ccc(N2CC=CC2)c(Cl)c1` (centres undefined) [PIRPROFEN]: the “Hepatotoxicity (moderate)” value turned out to be 5 in data set [1] and 2.8% in [14]. Besides, the “Hepatotoxicity (cirrhosis)” value in data set [2] was 1. Besides, in [3], the “Hepatotoxicity (steatosis)” value worked out at 2. Also, the “Hepatotoxicity (successful reintroduction)” value in data set [4] was “yes”. Also, in data set [5], the “Hepatotoxicity (choleostasis)” value was found to be 2. In addition, in [6], the “Hepatotoxicity (malignant tumour)” value is recorded as 0. Also, in data set [7], the “Hepatotoxicity (mechanism)” value is given as “Toxic Metabolite”. Further, the “Hepatotoxicity (severe hepatitis)” value in data set [8] came out at 8. The “Hepatotoxicity (time to onset)” value in data set [9] was 1 week - 1 year. Further, the “Hepatotoxicity (acute)” value in [10] amounted to 9; in data set [16], 0.3%. For the same molecule, in [11], the “Hepatotoxicity (chronic liver disease)” value was 1. In addition, the “Hepatotoxicity (benign tumour)” value in data set [12] was 0. The “Hepatotoxicity (cytolytic)” value in data set [13] came to 9. Besides, the “Hepatotoxicity (association with vascular disease)” value in [15] was determined as 0. Also, the “Hepatotoxicity (granulomatous hepatitis)” value in data set [17] is on record as 0.
Turning to `CCOC(N)=O`, the figures for the “Hepatotoxicity (moderate)” value in data set [1] and in data set [14] were 0 and 0%, respectively. In addition, in data set [2], the “Hepatotoxicity (cirrhosis)” value is 1. Also, the “Hepatotoxicity (steatosis)” value in data set [3] was determined as 0. In addition, the “Hepatotoxicity (successful reintroduction)” value in data set [4] is “yes”. Also, in [5], the “Hepatotoxicity (choleostasis)” value was determined as 1. Moreover, the “Hepatotoxicity (malignant tumour)” value in data set [6] came to 0. For the same molecule, in data set [7], the “Hepatotoxicity (mechanism)” value was “Dose-dependant”. For the same molecule, the “Hepatotoxicity (severe hepatitis)” value in data set [8] stood at 4. The “Hepatotoxicity (time to onset)” value in data set [9] was determined as 1 year - 2 years. The “Hepatotoxicity (acute)” value in [10] came to 5; in data set [16], 0%. Also, in data set [11], the “Hepatotoxicity (chronic liver disease)” value is 0. Further, the “Hepatotoxicity (benign tumour)” value in data set [12] is 0. The “Hepatotoxicity (cytolytic)” value in [13] is 5. For the same molecule, in [15], the “Hepatotoxicity (association with vascular disease)” value was found to be 3. Besides, the “Hepatotoxicity (granulomatous hepatitis)” value in data set [17] was found to be 0.
For the molecule `CCCSc1ccc2nc(NC(=O)OC)[nH]c2c1` [ALBENDAZOLE], the “Hepatotoxicity (moderate)” value in [1] came out at 25; in data set [14] (Liver) it was 100%. Also, the “Hepatotoxicity (cirrhosis)” value in data set [2] was 0. Besides, the “Hepatotoxicity (steatosis)” value in [3] is given as 0. Besides, in data set [4], the “Hepatotoxicity (successful reintroduction)” value is on record as “yes”. The “Hepatotoxicity (choleostasis)” value in data set [5] amounted to 2. Moreover, the “Hepatotoxicity (malignant tumour)” value in data set [6] was 0. Also, in data set [7], the “Hepatotoxicity (mechanism)” value is recorded as “Reactive metabolite”. The “Hepatotoxicity (severe hepatitis)” value in [8] (Liver) is on record as 0. The “Hepatotoxicity (time to onset)” value in data set [9] stood at 1 week - 6 months. Further, the “Hepatotoxicity (acute)” value in data set [10] is given as 8; in data set [16] (Liver), 5%. Besides, the “Hepatotoxicity (chronic liver disease)” value in data set [11] amounted to 0. In addition, the “Hepatotoxicity (benign tumour)” value in [12] is given as 0. Further, the “Hepatotoxicity (cytolytic)” value in data set [13] was 3. Also, the “Hepatotoxicity (association with vascular disease)” value in data set [15] came to 0. Besides, the “Hepatotoxicity (granulomatous hepatitis)” value in data set [17] came out at 0.
As for `Nc1nc(O)c2ncn(COC(CO)CO)c2n1` [GANCICLOVIR], the “Hepatotoxicity (moderate)” value in data set [1] worked out at 9; in [14], 55%. For the same molecule, in [2], the “Hepatotoxicity (cirrhosis)” value is 0. Further, the “Hepatotoxicity (steatosis)” value in data set [3] was found to be 0. The “Hepatotoxicity (successful reintroduction)” value in data set [4] is reported as “yes”. Further, the “Hepatotoxicity (choleostasis)” value in data set [5] is 1. In [6], the “Hepatotoxicity (malignant tumour)” value is 0. Moreover, the “Hepatotoxicity (mechanism)” value in data set [7] is reported as “Dose-dependant”. Besides, in data set [8], the “Hepatotoxicity (severe hepatitis)” value worked out at 0. The “Hepatotoxicity (time to onset)” value in data set [9] is 1 week - 26 days. Moreover, the “Hepatotoxicity (acute)” value in data set [10] is listed as 1; in data set [16] it was 0%. For the same molecule, the “Hepatotoxicity (chronic liver disease)” value in data set [11] stood at 0. Also, in data set [12], the “Hepatotoxicity (benign tumour)” value is recorded as 0. Also, the “Hepatotoxicity (cytolytic)” value in [13] is on record as 1. Further, the “Hepatotoxicity (association with vascular disease)” value in data set [15] is 0. Besides, the “Hepatotoxicity (granulomatous hepatitis)” value in [17] worked out at 0.

(Values after ChEMBL document CHEMBL3137667, “[Drug-induced liver injury; fourteenth updated edition of the bibliographic database of liver injuries and related drugs]” (Gastroenterol Clin Biol, 2004).)
